What was measured:
[1] = Inhibition of yeast alpha-glucosidase using p-nitrophenyl-alpha-d-glucopyranoside as substrate preincubated for 10 mins followed by substrate addition measured after 30 mins; parameters: species or system Saccharomyces cerevisiae
Alpha glucosidase = Alpha glucosidase (Homo sapiens, UniProt O43451+P10253+P14410+Q2M2H8); experiment: Inhibition of alpha-glucosidase (unknown origin); format: protein assay

Row | Structure (SMILES) | IC50 (Alpha glucosidase) | also measured
1 | Cc1cc(C)cc(-n2c(-c3cn(-c4ccccc4)nc3-c3cc4ccccc4oc3=O)nc(-c3ccccc3)c2-c2ccccc2)c1 | – | IC50 [1]: 2.5 to 46 µM
2 | Cc1nn(-c2ccc(Nc3cccc(Cl)c3)nn2)c(C)c1[N+](=O)[O-] | – | IC50 [1]: 19 µM
3 | Cc1[nH]c2ccccc2c1-c1nnc(-c2ccc(C(c3c(-c4ccccc4)[nH]c4ccccc34)c3c(-c4ccccc4)[nH]c4ccccc34)cc2)o1 | 20 to 292 µM | –
4 | Cn1cc(-c2nnc(-c3ccc(C(c4c(-c5ccccc5)[nH]c5ccccc45)c4c(-c5ccccc5)[nH]c5ccccc45)cc3)o2)c2ccccc21 | 20 to 292 µM | –
5 | Cc1ccc(NC(=O)Cn2cc(Cn3c(-c4cccc(Cl)c4)nc(-c4ccccc4)c3-c3ccccc3)nn2)c(C)c1 | 15 to 48 µM | –
6 | Cc1cc2nc(-c3ccc(C(=O)NNC(=S)Nc4ccc([N+](=O)[O-])cc4)cc3)[nH]c2cc1C | – | IC50 [1]: 35 µM
7 | Cc1cc2nc(-c3ccc(C(=O)NNC(=S)Nc4ccccc4Cl)cc3)[nH]c2cc1C | – | IC50 [1]: 35 to 297 µM
8 | Cc1cc2nc(-c3ccc(C(=O)N/N=C/c4cccc(O)c4)cc3)[nH]c2cc1C | – | IC50 [1]: 8.4 to 179 µM
9 | Cc1cc2nc(-c3ccc(C(=O)N/N=C/c4ccc(O)c(Br)c4)cc3)[nH]c2cc1C | – | IC50 [1]: 8.4 to 179 µM
10 | O=C1Nc2cc(Br)ccc2/C1=N/NC(=O)c1ccccc1O | 2.2 to 83 µM | –
11 | COc1ccc(/C=N/NC(=O)c2ccc(-c3nc4cc(C)c(C)cc4[nH]3)cc2)c(O)c1 | – | IC50 [1]: 8.4 to 9.9 µM
12 | COc1ccc(/C=N/NC(=O)c2ccc(-c3nc4cc(C)c(C)cc4[nH]3)cc2)cc1 | – | IC50 [1]: 8.4 to 179 µM
13 | Cc1ccc(-n2c(-c3cn(-c4ccccc4)nc3-c3cc4cc(Br)ccc4oc3=O)nc(-c3ccccc3)c2-c2ccccc2)cc1 | – | IC50 [1]: 2.5 to 46 µM
14 | Cc1cc2nc(-c3ccc(C(=O)N/N=C/c4cccnc4)cc3)[nH]c2cc1C | – | IC50 [1]: 8.4 to 179 µM
15 | O=C1CSC(=O)N1 [THIAZOLIDINEDIONE] | 0.54 to 2.2 µM | –
16 | Cc1cccc(NC(=S)NNC(=O)c2ccc(-c3nc4cc(C)c(C)cc4[nH]3)cc2)c1 | – | IC50 [1]: 35 to 297 µM
17 | Cc1cc2nc(-c3ccc(C(=O)NNC(=S)Nc4cccc(Br)c4)cc3)[nH]c2cc1C | – | IC50 [1]: 35 to 297 µM
18 | COc1ccc(-c2nn(-c3ccccc3)cc2-c2nc(-c3ccccc3)c(-c3ccccc3)[nH]2)cc1 | – | IC50 [1]: 2.7 to 23 µM
19 | Cc1cc2nc(-c3ccc(C(=O)N/N=C/c4cccc(O)c4O)cc3)[nH]c2cc1C | – | IC50 [1]: 8.4 to 9.9 µM
20 | Cc1cc2nc(-c3ccc(C(=O)NNC(=S)Nc4ccccc4Br)cc3)[nH]c2cc1C | – | IC50 [1]: 35 to 297 µM
21 | Cc1cc(C)cc(-n2c(-c3cn(-c4ccccc4)nc3-c3cc4cc(Br)ccc4oc3=O)nc(-c3ccccc3)c2-c2ccccc2)c1 | – | IC50 [1]: 2.5 to 46 µM
22 | COc1cccc(NC(=S)NNC(=O)c2ccc(-c3nc4cc(C)c(C)cc4[nH]3)cc2)c1 | – | IC50 [1]: 35 to 297 µM

Row | Structure (SMILES) | IC50 (Alpha glucosidase) | also measured
23 | COc1ccc(-c2nc(-c3ccccc3)c(-c3ccccc3)n2Cc2cn(CC(=O)Nc3ccc(Cl)cc3Cl)nn2)cc1OC | 15 to 48 µM | –
24 | CCOc1ccccc1NC(=O)Cn1cc(Cn2c(-c3ccccc3F)nc(-c3ccccc3)c2-c2ccccc2)nn1 | 15 to 48 µM | –
25 | Cc1c(C(c2ccc(-c3nnc(-c4cn(C)c5ccccc45)o3)cc2)c2c(C)n(C)c3ccccc23)c2ccccc2n1C | 20 to 292 µM | –
26 | O=c1oc2ccc(Br)cc2cc1-c1nn(-c2ccccc2)cc1-c1nc(-c2ccccc2)c(-c2ccccc2)[nH]1 | – | IC50 [1]: 2.7 to 23 µM
27 | Cc1cc2nc(-c3ccc(C(=O)NNC(=S)Nc4ccc(Br)cc4)cc3)[nH]c2cc1C | – | IC50 [1]: 35 to 297 µM
28 | Cc1cc2nc(-c3ccc(C(=O)NNC(=S)Nc4cccc(F)c4)cc3)[nH]c2cc1C | – | IC50 [1]: 35 to 297 µM
29 | Cn1cc(-c2nnc(-c3ccc(C(c4cn(C)c5ccccc45)c4cn(C)c5ccccc45)cc3)o2)c2ccccc21 | 20 to 292 µM | –
30 | Cc1cc2nc(-c3ccc(C(=O)N/N=C/c4cccc(F)c4)cc3)[nH]c2cc1C | – | IC50 [1]: 8.4 to 179 µM
31 | O=c1oc2ccc(Br)cc2cc1-c1nn(-c2ccccc2)cc1-c1nc(-c2ccccc2)c(-c2ccccc2)n1-c1ccc(Br)cc1 | – | IC50 [1]: 2.5 to 46 µM
32 | Cc1cc2nc(-c3ccc(C(=O)N/N=C/c4ccncc4)cc3)[nH]c2cc1C | – | IC50 [1]: 8.4 to 179 µM
33 | COC(=O)CC(C)=O | 19 to 25 µM | –
34 | COc1ccc(Cc2nnc(-c3ccc(Cl)cc3)n2Cc2nn(CN3CCN(C)CC3)c(=S)o2)cc1 | 4.3 µM | –
35 | c1ccc(-c2[nH]c3ccccc3c2C(c2ccc(-c3nnc(-c4c[nH]c5ccccc45)o3)cc2)c2c(-c3ccccc3)[nH]c3ccccc23)cc1 | 20 to 292 µM | –
36 | CCCN1C(=O)/C(=N\NC(=O)Cc2ccc(Cl)cc2Cl)c2ccccc21 | 2.2 to 83 µM | –
37 | Cc1ccccc1NC(=O)Cn1cc(Cn2c(-c3cccc(F)c3)nc(-c3ccccc3)c2-c2ccccc2)nn1 | 15 to 48 µM | –
38 | O=C1NC(=O)/C(=C/c2ccc(-c3nc4ccccc4n3Cc3ccc(Cl)cc3)cc2)S1 | 0.54 µM | –
39 | Cc1ccc(C(=O)N/N=C2\C(=O)Nc3ccc(Cl)cc32)cc1 | 2.2 to 83 µM | –
40 | CCOc1ccccc1NC(=O)Cn1cc(Cn2c(-c3cccc(Br)c3)nc(-c3ccccc3)c2-c2ccccc2)nn1 | 15 µM | Ki (Alpha glucosidase): 14 µM
41 | CCCCCCCCCCCC(=O)N/N=C1\C(=O)Nc2ccccc21 | 2.2 to 83 µM | –
42 | CCOC(=O)CC(=O)OCC [MALONIC ACID DIETHYL ESTER] | 5 to 16 µM | –
43 | O=C1Nc2cc(Cl)ccc2/C1=C/c1ccc(-c2nnc(-c3cc(O)cc(O)c3)o2)cc1 | 1.2 µM | –
44 | COc1ccc(Cc2nnc(-c3ccc(Cl)cc3)n2CC(=O)NNC(=S)Nc2ccc(Cl)cc2)cc1 | 3.4 µM | –

Now from value to molecule, other results behind:

Row | IC50 (Alpha glucosidase) | Structure (SMILES) | also measured
45 | 15 to 48 µM | CCOc1ccc(NC(=O)Cn2cc(Cn3c(-c4cccc(Cl)c4)nc(-c4ccccc4)c3-c3ccccc3)nn2)cc1 | –
46 | 20 to 292 µM | Cc1[nH]c2ccccc2c1-c1nnc(-c2ccc(C(c3cn(C)c4ccccc34)c3cn(C)c4ccccc34)cc2)o1 | –
47 | 4.3 to 43 µM | O=C(C[C@@H](c1ccc(Cl)cc1)c1c[nH]c2ccccc12)c1ccc2ccccc2c1 | –
48 | 4.3 to 43 µM | O=C(C[C@@H](c1ccccc1)c1c[nH]c2ccccc12)c1ccccc1 | –
49 | 15 to 48 µM | COc1ccc(NC(=O)Cn2cc(Cn3c(-c4cccs4)nc(-c4ccccc4)c3-c3ccccc3)nn2)cc1 | –
50 | 4.3 to 43 µM | COc1ccc([C@H](CC(=O)c2ccc3ccccc3c2)c2c[nH]c3ccccc23)cc1 | –
51 | 0.17 µM | CCn1c2ccccc2c2cc(NC(=O)CSc3nc4ccccc4[nH]3)ccc21 | –
52 | 20 to 292 µM | Cc1c(C(c2ccc(-c3nnc(-c4c[nH]c5ccccc45)o3)cc2)c2c(C)n(C)c3ccccc23)c2ccccc2n1C | –
53 | 2 µM | Cn1cc(-c2nnc(-c3ccc(C(c4c[nH]c5ccccc45)c4c[nH]c5ccc(Cl)cc45)cc3)o2)c2ccccc21 (stereo not given) | –
54 | 20 to 292 µM | c1ccc2c(-c3nnc(-c4ccc(C(c5c[nH]c6ccccc56)c5c[nH]c6ccccc56)cc4)o3)c[nH]c2c1 | –
55 | 15 to 48 µM | COc1ccccc1-c1nc(-c2ccccc2)c(-c2ccccc2)n1Cc1cn(CC(=O)Nc2ccc(C)cc2)nn1 | –
56 | 4.3 to 43 µM | Cc1cccc([C@H](CC(=O)c2ccccc2)c2c[nH]c3ccccc23)c1 | –
57 | 4.3 to 43 µM | Cc1ccc([C@H](CC(=O)c2ccccc2)c2c[nH]c3ccccc23)cc1 | –
58 | 15 to 48 µM | Cc1ccc(NC(=O)Cn2cc(Cn3c(-c4cccc(F)c4)nc(-c4ccccc4)c3-c3ccccc3)nn2)c(C)c1 | –
59 | 4.3 to 43 µM | O=C(C[C@@H](c1ccc(Cl)cc1Cl)c1c[nH]c2ccccc12)c1ccccc1 | –
60 | 20 to 292 µM | Cc1[nH]c2ccccc2c1-c1nnc(-c2ccc(C(c3c[nH]c4ccc(Br)cc34)c3c[nH]c4ccc(Br)cc34)cc2)o1 | –
61 | 4.3 µM | O=C(C[C@@H](c1c(Cl)cccc1Cl)c1c[nH]c2ccccc12)c1ccccc1 | –
62 | 20 to 292 µM | Cn1cc(-c2nnc(-c3ccc(C(c4c[nH]c5ccc(C#N)cc45)c4c[nH]c5ccc(C#N)cc45)cc3)o2)c2ccccc21 | –
63 | 15 to 48 µM | CCOc1ccc(NC(=O)Cn2cc(Cn3c(-c4ccc(C(=O)OC)cc4)nc(-c4ccccc4)c3-c3ccccc3)nn2)cc1 | –
64 | 20 to 292 µM | Cn1cc(-c2nnc(-c3ccc(C(c4c[nH]c5ccc(Cl)cc45)c4c[nH]c5ccc(Cl)cc45)cc3)o2)c2ccccc21 | –

Row | IC50 (Alpha glucosidase) | Structure (SMILES) | also measured
65 | 4.3 to 43 µM | O=C(C[C@@H](c1cccc(Br)c1)c1c[nH]c2ccccc12)c1ccccc1 | –
66 | 20 to 292 µM | Cn1cc(C(c2ccc(-c3nnc(-c4c[nH]c5ccccc45)o3)cc2)c2cn(C)c3ccccc23)c2ccccc21 | –
67 | 4.3 to 43 µM | O=C(C[C@@H](c1cccs1)c1c[nH]c2ccccc12)c1ccccc1 | –
68 | 15 to 48 µM | COc1ccc(NC(=O)Cn2cc(Cn3c(-c4cccc(Cl)c4)nc(-c4ccccc4)c3-c3ccccc3)nn2)cc1 | –
69 | 20 to 292 µM | N#Cc1ccc2[nH]cc(C(c3ccc(-c4nnc(-c5c[nH]c6ccccc56)o4)cc3)c3c[nH]c4ccc(C#N)cc34)c2c1 | –
70 | 20 to 292 µM | Clc1ccc2[nH]cc(C(c3ccc(-c4nnc(-c5c[nH]c6ccccc56)o4)cc3)c3c[nH]c4ccc(Cl)cc34)c2c1 | –
71 | 4.3 to 43 µM | Cc1ccc([C@H](CC(=O)c2ccc3ccccc3c2)c2c[nH]c3ccccc23)cc1 | –
72 | 15 to 48 µM | O=C(Cn1cc(Cn2c(-c3ccc(F)cc3)nc(-c3ccccc3)c2-c2ccccc2)nn1)Nc1ccc(Cl)cc1Cl | –
73 | 4.3 to 43 µM | O=C(C[C@@H](c1ccc(Cl)cc1)c1c[nH]c2ccccc12)c1ccccc1 | –
74 | 4.3 to 43 µM | COc1ccc([C@H](CC(=O)c2ccccc2)c2c[nH]c3ccccc23)cc1 | –
75 | 20 to 292 µM | Cc1[nH]c2ccccc2c1-c1nnc(-c2ccc(C(c3c[nH]c4ccc(Cl)cc34)c3c[nH]c4ccc(Cl)cc34)cc2)o1 | –
76 | 4.3 to 43 µM | O=C(C[C@@H](c1cccc([N+](=O)[O-])c1)c1c[nH]c2ccccc12)c1ccccc1 | –
77 | 20 to 292 µM | Cc1[nH]c2ccccc2c1-c1nnc(-c2ccc(C(c3c(C)n(C)c4ccccc34)c3c(C)n(C)c4ccccc34)cc2)o1 | –
78 | 15 to 48 µM | COC(=O)c1ccc(-c2nc(-c3ccccc3)c(-c3ccccc3)n2Cc2cn(CC(=O)Nc3cc(Cl)ccc3Cl)nn2)cc1 | –
79 | 20 to 292 µM | Cn1cc(-c2nnc(-c3ccc(C(c4c[nH]c5ccc(Br)cc45)c4c[nH]c5ccc(Br)cc45)cc3)o2)c2ccccc21 | –
80 | 20 to 292 µM | Cn1cc(-c2nnc(-c3ccc(C(c4c[nH]c5ccccc45)c4c[nH]c5ccccc45)cc3)o2)c2ccccc21 | –
81 | 15 to 48 µM | Cc1ccccc1NC(=O)Cn1cc(Cn2c(-c3ccc(Br)cc3)nc(-c3ccccc3)c2-c2ccccc2)nn1 | –
82 | 4.3 to 43 µM | O=C(C[C@@H](c1ccccc1)c1c[nH]c2ccccc12)c1ccc2ccccc2c1 | –
83 | 20 to 292 µM | Cc1[nH]c2ccccc2c1-c1nnc(-c2ccc(C(c3c[nH]c4ccc(C#N)cc34)c3c[nH]c4ccc(C#N)cc34)cc2)o1 | –
84 | 15 to 48 µM | O=C(Cn1cc(Cn2c(-c3ccc(Br)cc3)nc(-c3ccccc3)c2-c2ccccc2)nn1)Nc1ccc(F)cc1 | –

From ChEMBL document CHEMBL4304757, “Synthetic heterocyclic candidates as promising α-glucosidase inhibitors: An overview” (Eur J Med Chem, 2019)
